The numbers were not newly measured in patent publication US11801275B2, “Compositions and methods for common colds” (M. ALPHABET 3, LLC, priority 2017, dated 2023), which cites them from elsewhere.

Molecules are shown by their SMILES. Like-named read-outs stand apart in the source and are kept apart here.

Data set [1] concerns common cold.
Data set [2] relates to upper respiratory tract infections.

On to `O=C1O[C@H]([C@@H](O)CO)C(O)=C1O` [vitamin C, ascorbic acid], for which the “pooled risk ratio (RR) of developing a cold whilst taking vitamin C regularly” value is reported as 0.48 in data set [1] (five trials, 598 marathon runners, skiers and soldiers on subarctic exercises, 95% CI 0.35 to 0.64); 0.97 in data set [1] (general community trials, 10,708 participants, 95% CI 0.94 to 1.00). Also, the “effect on the duration or severity of colds” value in data set [1] (therapeutic trials) is reported as “no consistent effect”.
Consider `C=C1CC[C@H](O)C/C1=C/C=C1\CCC[C@]2(C)[C@@H]([C@H](C)CCCC(C)C)CC[C@@H]12` [vitamin D3], for which, in data set [2] (after oral vitamin D3 200,000 IU then 100,000 IU, increased from 29 (SD, 9) ng/mL, maintained throughout the study), the “mean level of 25-hydroxy vitamin D” value is “greater than 48 ng/mL”. Further, the “difference versus placebo in upper respiratory tract infections, days of missed work, duration and severity of symptoms” value in data set [2] (irrespective of season) is “no statistically significant difference”.
